Test results published in patent EP0462071B1, “Pharmaceutical resorption-improved somatostatin compositions, their preparation and use” (SANDOZ LTD., priority 1990, dated 1991).
Like-named read-outs stand apart in the source and are kept apart here.

Test: Resorption of octreotide after injection of a solution into the jejunum of anaesthetised rats; plasma concentration by radio-immunoassay
Assay type: in vivo, Wistar rats
Settings: for AUC(0-t): area under the curve over 2 hours
Experimental: Wistar rats (about 300 g body weight) were fasted for 12 hours and anaesthetised with urethane (2 doses of […] i.p.). The abdomen was opened to gain access to the gastrointestinal tract in particular the jejunum. A solution of the pharmaceutical composition according to the invention or of the somatostatin as a control or of a somatostatin in combination with sodium taurocholate, a resorption enhancer, known to be used in combination with e.g. salmon calcitonin or insulin for an improved resorption through the mucous membrane of the gastrointestinal tract, was injected into the gastrointestinal tract, e.g. the jejunum. Blood samples (e.g. 1 ml) are obtained 20 minutes, and 1 and 2 hours after administration from the vena cava. The blood is centrifuged and the somatostatin concentration in the plasma determined in conventional manner using a radio-immunoassay method.
The relative bioavailability (AUCo² = Area under the curve over 2 hours) is determined and expressed in the following table, in which the AUC is expressed as ng/ml.hour and Cmax as ng/ml: TABLE A

## C[C@@H](O)[C@@H]1NC(=O)[C@H](CCCCN)NC(=O)[C@@H](Cc2c[nH]c3ccccc23)NC(=O)[C@H](Cc2ccccc2)NC(=O)[C@@H](NC(=O)[C@H](N)Cc2ccccc2)CSSC[C@@H](C(=O)N[C@H](CO)[C@@H](C)O)NC1=O [100 microg. of octreotide (reference), Octreotide]
Wistar, rat, 100 microg., octreotide in plasma, 0.5 ml of NaCl (0.9 % W/V) solution injected into the jejunum, sem in the next column
  Cmax: 2.23 ng/mL
Wistar, rat, 100 microg., octreotide in plasma, 0.5 ml of NaCl (0.9 % W/V) solution injected into the jejunum, blood samples at 20 minutes, 1 and 2 hours, read-out: AUCo² median
  AUC(0-t): 2.06 ng·h/mL
Wistar, rat, plasma, 100 microg., octreotide in plasma, 0.5 ml of NaCl (0.9 % W/V) solution injected into the jejunum, sem in the next column, read-out: AUCo² mean
  AUC(0-t): 2.26 ng·h/mL
Relative to 100 microg. of octreotide alone (reference = 100 %), values correspond to the ratio of the median AUCo²
  Bioavail. rel. %: 100%
